Assay results reported in patent US20210238138A1, “Method for improving nucleation of crystals from solution” (Université Libre de Bruxelles, priority 2018, published 2021).
Converted amounts (≈) assume the structure as drawn.

What was measured:
[1] = Solubility of Brivaracetam in IPAc; conditions: IPAc (isopropyl acetate), organic solvent or mixture
[2] = Antisolvent (hexane) crystallisation of Brivaracetam/IPAc in capillary tubing; format: physicochemical; conditions: for Crystals Mean maximum length: inner diameter 500 μm, flows 20 and 20 mL · min^−1
Protocol: The length of the capillary tube has also been varied. In the following tests, antisolvent hexane at 4° C. was added to a solution of Brivaracetam/IPAc. It became clear that for these cases different lengths of tubing are to be investigated, as too long tube results into blockage of the tubes due to too high solid content in suspension in the solution, as reported in table 6. In all cases, the preferred rods form was observed.

## CCC[C@@H]1CC(=O)N([C@@H](CC)C(N)=O)C1 [Brivaracetam]
[1]; 20 °C
  solubility: 136 mg/mL (≈ 641 mM)
[1]; 45 °C
  solubility: ~1100 mg/mL (≈ 5180 mM)
[2]; all antisolvent (hexane) tests of tables 5 and 6
  Crystal form observed: rods
[2]; test 22: 150 mg · mL^−1 in IPAc, σ 8.4, hexane antisolvent, tubular length 18 cm
  Crystals Mean maximum length: 6 ± 2 μm
[2]; test 23: 150 mg · mL^−1 in IPAc, σ 8.4, hexane antisolvent, tubular length 33 cm
  Crystals Mean maximum length: 9 ± 5 μm
[2]; test 24: 150 mg · mL^−1 in IPAc, σ 8.4, hexane antisolvent, tubular length 50 cm
  Crystals Mean maximum length: 10 ± 5 μm
[2]; test 25: 150 mg · mL^−1 in IPAc, σ 8.4, hexane antisolvent, tubular length 50 cm
  Crystals Mean maximum length: 9 ± 4 μm
[2]; test 26: 150 mg · mL^−1 in IPAc, σ 8.4, hexane antisolvent, tubular length 100 cm
  Crystals Mean maximum length: Blocked tube
[2]; test 27: 200 mg · mL^−1 in IPAc, σ 11.5, hexane antisolvent, tubular length 18 cm
  Crystals Mean maximum length: 12 ± 6 μm
[2]; test 28: 200 mg · mL^−1 in IPAc, σ 11.5, hexane antisolvent, tubular length 33 cm
  Crystals Mean maximum length: 7 ± 3 μm
[2]; test 29: 200 mg · mL^−1 in IPAc, σ 11.5, hexane antisolvent, tubular length 50 cm
  Crystals Mean maximum length: 9 ± 5 μm
[2]; test 30: 200 mg · mL^−1 in IPAc, σ 11.5, hexane antisolvent, tubular length 50 cm
  Crystals Mean maximum length: 7 ± 3 μm
[2]; test 31: 200 mg · mL^−1 in IPAc, σ 11.5, hexane antisolvent, tubular length 100 cm
  Crystals Mean maximum length: Blocked tube
[2]; test 32: 300 mg · mL^−1 in IPAc, σ 17.8, hexane antisolvent, tubular length 50 cm
  Crystals Mean maximum length: 8 ± 3 μm
[2]; test 33: 300 mg · mL^−1 in IPAc, σ 17.8, hexane antisolvent, tubular length 100 cm
  Crystals Mean maximum length: Blocked tube
